Holding throughout (assay type): cell-based
Assay [1] relates to Rat embryonic cortical neurons. Description: Neuritic atrophy caused by 4-HNE, Scholl ring analysis. As to conditions: pre-treatment 2 days (1 μM; ascorbate 100 μM), then 25 μM 4-HNE 1 day. How it is done:
Rat embryonic cortical neurons were treated with mock (FIG. 11C), 1 μM HA-GAGR (high acyl gellan gum), 1 μM dextran, 100 μM ascorbate or 1 μM midi-GAGR (FIG. 13A) for 2 days and then with 25 μM 4-hydroxynonenal (4-HNE), a lipid peroxide, for 1 day. After fixation, neurons were immunostained with anti-synaptophysin antibody (green) and rhodamine-phalloidin (actin: red). Scholl ring analysis was performed.

For assay [2], the system named is phosphorylated CREB in mouse embryonic cortical neurons. The assay is described as follows: Nuclear p-CREB immunostaining in cortical neurons (Example 2). The conditions noted are these: 1 μM, 24 h. How it is done: Differentiated PC12 cells and mouse embryonic cortical neurons (E17, DIV14) were treated with mock, dextran, alginate, HA-GAGR or midi-GAGR (1 μM) for 24 h and fixed in 3.7% paraformaldehyde. The fixed cells and neurons were immunostained with antibodies against α-tubulin and phosopho-CREB (p-CREB) along with DAPI (nucleus).

Assay [3] deals with primary mouse cortical neurons (E17, DIV4). Description: Neurite outgrowth in primary mouse cortical neurons. As to conditions: 2 days; 1 μM midi-GAGR, dextran, alginate; 0.1 μM LA-GAGR; 0.01 μM HA-GAGR. How it is done:
To analyze the effect of polysaccharides on neurite outgrowth, primary mouse cortical neurons were treated with vehicle (H2O) or 1 μM of dextran, alginate, or midi-GAGR, 0.01 μM of HA-GAGR, or 0.1 μM of LA-GAGR for 2 days prior to immunocytochemistry using anti-α-tubulin antibody and secondary Alexa488nm antibody. An etched grid coverslip containing 200 numbered boxes was used to select neurons objectively for image acquisition and analysis. A total of 24 boxes were randomly selected per treatment group. All the neurons having total neurite length longer than 4 times of the diameter of neuron cell body were chosen for image analysis. The total length of the neurites of each neuron was measured using Metamorph and used to calculate average total neurite length. To examine the effect of polysaccharides on the phosphorylation (activation) of nuclear CREB, neurons were stained with anti-pCREB antibody (Abcam & Santa Cruz biotechnologies, 2nd antibody with Alexa568nm), anti-α-tubulin antibody (Sigma, 2nd antibody with Alexa488nm), and DAPI (Sigma) after two-day incubation with vehicle (H2O) or 1 μM of dextran, alginate, or midi-GAGR, 0.01 μM of HA-GAGR, or 0.1 μM of LA-GAGR. […] The images of neurons on coverslips were taken by confocal microscopy at the same gain (850), offset (˜0.01) and exposure time (2 sec). The intensity of the staining of nuclear pCREB was measured using Metamorph and used to calculate average intensity. In addition, the phosphorylation of CREB in the cytosols of mouse cortical neurons treated with polysaccharides were detected by immunoblotting. Primary mouse neurons were dissected from 16 mouse embryos (E17) and plated in the wells of 6-well plates (1×10^6 cells/well), differentiated for 6 days, and treated with polysaccharides for 48 h. […] The protein bands on blots recognized by anti-pCREB (Santa Cruz Biotechnologies) and anti-CREB antibodies were detected on Amersham Hyperfilm™ ECL films (GE Healthcare Life Science) using SuperSignal® West Pico Chemiluminescent Substrate (Thermo Scientific).

For the substance dextran, the “neurites in the presence of 4-HNE (neuritic atrophy)” value in assay [1] was “lost neuritis”. Moreover, in assay [2], the “increase of the levels of nuclear p-CREB” value is listed as “not significantly increased”. Also, in assay [3], the “fold change in average total neurite length compared to vehicle” value was “did not enhance neuritogenesis”.

The values are drawn from patent US10792301B2, “Therapeutic polysaccharide midi-GAGR and related materials and methods” (priority 2015, dated 2020).
